Measured values: US20240246964A1 (Arbutus Biopharma Corporation, priority 2021, published 2024)

Legend:
human PD-L1 = human PD-L1 (Homo sapiens (Human), UniProt Q9NZQ7); assay: T cell activation luciferase reporter cell culture system (T Cell Activation Assay); assay type: cell-based; conditions: luciferase reporter assay; PD-L1 aAPC/CHO-K1 cells with PD-1 effector Jurkat T cells
[1] = molecular target: PD-L1 His protein / PD-1 Fc protein (Homo sapiens (Human), UniProt Q9NZQ7); assay: HTRF Assay (PD-1/PD-L1 interaction); assay type: binding; conditions: PD-L1 His 6 nM, PD-1 Fc 6 nM
PD-L1 His protein / PD-1 Fc protein, sequence (Q9NZQ7 19-238): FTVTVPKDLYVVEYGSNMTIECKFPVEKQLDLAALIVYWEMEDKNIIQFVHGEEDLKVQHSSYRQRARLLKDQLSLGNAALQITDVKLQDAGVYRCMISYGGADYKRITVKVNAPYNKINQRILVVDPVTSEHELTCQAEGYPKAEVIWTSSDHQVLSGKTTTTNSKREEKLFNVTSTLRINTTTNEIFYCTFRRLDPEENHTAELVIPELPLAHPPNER

human PD-L1, sequence (Q9NZQ7 19-290): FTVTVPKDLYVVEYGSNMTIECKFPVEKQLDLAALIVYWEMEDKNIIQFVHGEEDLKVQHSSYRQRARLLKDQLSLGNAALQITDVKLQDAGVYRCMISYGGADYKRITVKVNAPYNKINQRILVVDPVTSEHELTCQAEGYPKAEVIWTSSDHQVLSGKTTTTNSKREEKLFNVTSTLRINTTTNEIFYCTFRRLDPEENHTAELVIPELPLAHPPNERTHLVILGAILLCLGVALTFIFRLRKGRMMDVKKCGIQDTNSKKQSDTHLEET

Compound	EC50 (human PD-L1) [nM]	IC50 [1] [nM]
COc1cc(-c2nccc(-c3cccc(NC(=O)c4cn(C)c(=O)n(C)c4=O)c3Cl)c2Cl)ccc1CNC1CCN(C(C)=O)CC1 [Example 656, N-(3-(2-(4-(((1-Acetylpiperidin-4-yl)amino)methyl)-3-methoxyphenyl)-3-chloropyridin-4-yl)-2-chlorophenyl)-1,3-dimethyl-2,4-dioxo-1,2,3,4-tetrahydropyrimidine-5-carboxamide]	589	0.16
COc1nc(-c2ccnc(-c3cccc4c3CCC[C@@H]4Nc3nc(OC)c(CNC[C@H](C)O)cc3C(F)(F)F)c2Cl)ccc1CNC[C@@H]1CCC(=O)N1 [Example 707, (S)-5-((((3′-Chloro-2′-((S)-5-((5-((((S)-2-hydroxypropyl)amino)methyl)-6-methoxy-3-(trifluoromethyl)pyridin-2-yl)amino)-5,6,7,8-tetrahydronaphthalen-1-yl)-6-methoxy-[2,4′-bipyridin]-5-yl)methyl)amino)methyl)pyrrolidin-2-one]	≥ 10000	54.3
COc1cc(-c2nccc(-c3cccc(-c4ccc(CN5CC6(CNC(=O)C6)C5)c(OC)n4)c3Cl)c2Cl)cc2c1CN(CC1(C(=O)O)CC1)CC2 [Example 297, 1-((6-(3-Chloro-4-(2-chloro-3-(6-methoxy-5-((7-oxo-2,6-diazaspiro[3.4]octan-2-yl)methyl)pyridin-2-yl)phenyl)pyridin-2-yl)-8-methoxy-3,4-dihydroisoquinolin-2(1H)-yl)methyl)cyclopropane-1-carboxylic acid]	422	0.29
COc1cc(-c2nccc(-c3cccc(NC(=O)c4ccc(CNC5CCN(C(C)=O)CC5)cn4)c3C)c2Cl)ccc1CNC1CCN(C(C)=O)CC1 [Example 645, 5-(((1-Acetylpiperidin-4-yl)amino)methyl)-N-(3-(2-(4-(((1-acetylpiperidin-4-yl)amino)methyl)-3-methoxyphenyl)-3-chloropyridin-4-yl)-2-methylphenyl)picolinamide]	1410	0.44
COc1nc(-c2cccc(-c3ccnc(-c4ccc5c(CN(C)C6CCN(C(C)=O)CC6)cn(C)c5c4)c3Cl)c2Cl)ccc1CNC[C@@H]1CCC(=O)N1 [Compound 56, (S)-5-((((6-(3-(2-(3-(((1-acetylpiperidin-4-yl)(methyl)amino)methyl)-1-methyl-1H-indol-6-yl)-3-chloropyridin-4-yl)-2-chlorophenyl)-2-methoxypyridin-3-yl)methyl)amino)methyl)pyrrolidin-2-one]	36.8	4
COc1nc(-c2cccc(-c3ccnc(-c4cc(OC)c5nc(CN6CC(C)(O)C6)cn5c4)c3Cl)c2Cl)ccc1CNC[C@@H]1CCC(=O)N1 [Example 317, (S)-5-((((6-(2-Chloro-3-(3-chloro-2-(2-((3-hydroxy-3-methylazetidin-1-yl)methyl)-8-methoxyimidazo[1,2-a]pyridin-6-yl)pyridin-4-yl)phenyl)-2-methoxypyridin-3-yl)methyl)amino)methyl)pyrrolidin-2-one]	62.6	1.94
CNCc1ccc(-c2cccc(-c3ccnc(-c4ccc(CNC5CCN(C(C)=O)CC5)c(OC)c4)c3Cl)c2Cl)nc1OC [Compound 212, 1-(4-((4-(3-chloro-4-(2-chloro-3-(6-methoxy-5-((methylamino)methyl)pyridin-2-yl)phenyl)pyridin-2-yl)-2-methoxybenzyl)amino)piperidin-1-yl)ethan-1-one]	20.6	2.72
CNCc1ccc(C(=O)Nc2cccc(-c3ccnc(-c4ccc(CNC[C@@H]5CCC(=O)N5)c(OC)c4)c3Cl)c2C)nc1 [Example 756, (S)—N-(3-(3-chloro-2-(3-methoxy-4-((((5-oxopyrrolidin-2-yl)methyl)amino)methyl)phenyl)pyridin-4-yl)-2-methylphenyl)-5-((methylamino)methyl)picolinamide]	63.8	0.2
COc1nc(-c2ccnc(-c3cccc4c3CC[C@@H]4Nc3nc(OC)c(CNC4(C(=O)O)CC4)cc3C(F)(F)F)c2Cl)ccc1CNC[C@@H]1CCC(=O)N1 [Compound 164, 1-(((6-(((S)-4-(3′-chloro-6-methoxy-5-(((((S)-5-oxopyrrolidin-2-yl)methyl)amino)methyl)-[2,4′-bipyridin]-2′-yl)-2,3-dihydro-1H-inden-1-yl)amino)-2-methoxy-5-(trifluoromethyl)pyridine-3-yl)methyl)amino)cyclopropane-1-carboxylic acid]	66.6	0.49
COc1cc(-c2nccc(-c3cccc(-c4ccc5c(CNC6CCOCC6)cn(C)c5n4)c3Cl)c2Cl)ccc1CN1CC2(CNC(=O)C2)C1 [Compound 605, 2-(4-(3-Chloro-4-(2-chloro-3-(1-methyl-3-(((tetrahydro-2H-pyran-4-yl)amino)methyl)-1H-pyrrolo[2,3-b]pyridin-6-yl)phenyl)pyridin-2-yl)-2-methoxybenzyl)-2,6-diazaspiro[3.4]octan-7-one]	636	0.34
COc1nc(-c2cccc(-c3ccnc(-c4ccc5c(CNC6CN(C(C)=O)C6)cn(C)c5c4)c3Cl)c2Cl)ccc1CNC[C@@H]1CCC(=O)N1 [Compound 55, (S)-5-((((6-(3-(2-(3-(((1-acetylazetidin-3-yl)amino)methyl)-1-methyl-1H-indol-6-yl)-3-chloropyridin-4-yl)-2-chlorophenyl)-2-methoxypyridin-3-yl)methyl)amino)methyl)pyrrolidin-2-one]	127	4.9
CNCc1ccc(-c2cccc(-c3ccnc(-c4cc(CNCC56CC(C(=O)O)(C5)C6)cc(OC)c4)c3Cl)c2Cl)nc1OC [Compound 175, 3-(((3-(3-chloro-4-(2-chloro-3-(6-methoxy-5-((methylamino)methyl)pyridine-2-yl)phenyl)pyridine-2-yl)-5-methoxybenzyl)amino)methyl)bicyclo[1.1.1]pentane-1-carboxylic acid]	1160	8.73
COc1cc(-c2nccc(-c3cccc(NC(=O)c4ccc(CNCCO)cn4)c3C)c2Cl)ccc1CNC1CCOCC1 [Example 703, N-(3-(3-Chloro-2-(3-methoxy-4-(((tetrahydro-2H-pyran-4-yl)amino)methyl)phenyl)pyridin-4-yl)-2-methylphenyl)-5-(((2-hydroxyethyl)amino)methyl)picolinamide]	146	0.14
COc1cc(-c2nccc(-c3cccc(-c4ccc5c(CNC[C@H](C)O)cn(C)c5n4)c3Cl)c2Cl)ccc1CNC[C@@H]1CCC(=O)N1 [Compound 98, (S)-5-(((4-(3-chloro-4-(2-chloro-3-(3-((((S)-2-hydroxypropyl)amino)methyl)-1-methyl-1H-pyrrolo[2,3-b]pyridin-6-yl)phenyl)pyridin-2-yl)-2-methoxybenzyl)amino)methyl)pyrrolidin-2-one]	30.5	0.7
CNCc1ccc(-c2cccc(-c3ccnc(-c4ccc(CN5CC[C@H](C(=O)OC(C)C)C5)c(OC)c4)c3Cl)c2Cl)nc1OC [Example 278, Isopropyl (S)-1-(4-(3-chloro-4-(2-chloro-3-(6-methoxy-5-((methylamino)methyl)pyridin-2-yl)phenyl)pyridin-2-yl)-2-methoxybenzyl)pyrrolidine-3-carboxylate]	258	404
COc1cc(-c2nccc(-c3cccc(-c4ccc(CNC5CCN(C(C)=O)CC5)c(OC)n4)c3Cl)c2Cl)ccc1CNC1CC(C)(C)C1 [Example 381, 1-(4-(((6-(2-Chloro-3-(3-chloro-2-(4-(((3,3-dimethylcyclobutyl)amino)methyl)-3-methoxyphenyl)pyridin-4-yl)phenyl)-2-methoxypyridin-3-yl)methyl)amino)piperidin-1-yl)ethan-1-one]	53.3	0.184
COc1nc(-c2cccc(-c3ccnc(-c4ccc5c(CNCCO)cn(C)c5c4)c3Cl)c2Cl)ccc1CNC[C@@H]1CCC(=O)N1 [Compound 29, (S)-5-((((6-(2-chloro-3-(3-chloro-2-(3-(((2-hydroxyethyl)amino)methyl)-1-methyl-1H-indol-6-yl)pyridin-4-yl)phenyl)-2-methoxypyridin-3-yl)methyl)amino)methyl)pyrrolidin-2-one]	94	1.1
COc1cc(-c2nccc(-c3cccc(-c4ccc(CN[C@@H]5CCC(=O)NC5)c(OC)n4)c3Cl)c2Cl)ccc1CNC1CCN(C(C)=O)CC1 [Example 541, (R)-5-(((6-(3-(2-(4-(((1-Acetylpiperidin-4-yl)amino)methyl)-3-methoxyphenyl)-3-chloropyridin-4-yl)-2-chlorophenyl)-2-methoxypyridin-3-yl)methyl)amino)piperidin-2-one]	93.4	0.79
COC(=O)[C@H](CCO)NCc1ncc(-c2nccc(-c3cccc(-c4ccc(CNC[C@@H]5CCC(=O)N5)c(OC)n4)c3Cl)c2Cl)cc1OC [Compound 267, Methyl ((3-chloro-4-(2-chloro-3-(6-methoxy-5-(((((S)-5-oxopyrrolidin-2-yl)methyl)amino)methyl)pyridin-2-yl)phenyl)-5′-methoxy-[2,3′-bipyridin]-6′-yl)methyl)-L-homoserinate]	639	2.97
COc1nc(-c2cccc(-c3ccnc(-c4ccc5c(c4)CNC5)c3Cl)c2Cl)ccc1CNCCO [Compound 160, 2-(((6-(2-chloro-3-(3-chloro-2-(isoindolin-5-yl)pyridine-4-yl)phenyl)-2-methoxypyridin-3-yl)methyl)amino)ethan-1-ol]	150	0.87
COc1nc(-c2cccc(-c3ccnc(-c4ccc5c(CNC6CCN(C(C)=O)CC6)nn(C)c5c4)c3Cl)c2Cl)ccc1CNC[C@@H]1CCC(=O)N1 [Compound 167, (S)-5-((((6-(3-(2-(3-(((1-acetylpiperidin-4-yl)amino)methyl)-1-methyl-1H-indazol-6-yl)-3-chloropyridin-4-yl)-2-chlorophenyl)-2-methoxypyridin-3-yl)methyl)amino)methyl)pyridine1332ne-2-one]	18.4	1.47
